From patent US12459951B2, “Compounds that interact with RAS superfamily proteins for treatment of cancers, inflammatory diseases, rasopathies, and fibrotic disease” (SHY Therapeutics, LLC, priority 2022, dated 2025)

Tests used:
JNK phosphorylation = test: JNK Activation Assay (western blot), Panc-1; format: cell-based, human; settings: at 10 μM, Panc-1 pancreatic cancer cell line; starred symbols = activation
Method: Protocol for JNK Activation Assay
This assay is referred to as the “JNK Activation Assay” throughout this application.
Cell lines: Human tumor-derived pancreatic cancer cell line Panc-1 (expressing KRas […] mutant) was purchased from American Type Culture Collection and grown in complete DMEM-High Glucose medium, supplemented with penicillin (100 U/mL), streptomycin (100 μg/mL), and 10% heat-inactivated FBS at 37° C. in a humidified incubator with 5% CO2.
Method 1: Cells were plated at 350000 cells/well density in a 12-well plate, allowed 3 hours to adhere to the plate, then starved in the appropriate medium in the presence of 0.5% FBS overnight. The small molecules to be tested were added to the cells in the final concentration of 10 μM in the presence of 0.3% DMSO for 6 hours incubation at 37° C. For IC50 value determination, serial dilutions of compounds were added to cells under the same conditions. Next, cells were stimulated with 1.5 ng/ml EGF for 15 minutes then cells were lysed with lysis buffer containing 1% Triton X-100, EDTA, and Halt™ Protease & Phosphatase Inhibitor Cocktail (Thermo Scientific). Protein concentration was assessed by BCA protein assay (Thermo Scientific). Phosphorylation level of JNK was determined by western blot.
Method 2: Cells were plated at 350000 cells/well density in a 12-well plate in the presence of 10% FBS. The next day small molecules to be tested were added to the cells in the final concentration of 10 μM in the presence of 0.3% DMSO for 6 hours incubation at 37° C. For IC50 value determination, serial dilutions of compounds were added to cells under the same conditions. Next, cells were lysed with lysis buffer containing 1% Triton X-100, EDTA, and Halt™ Protease & Phosphatase Inhibitor Cocktail (Thermo Scientific). Protein concentration was assessed by BCA protein assay (Thermo Scientific). Phosphorylation level of JNK was determined by western blot.
Western blot protocol: Equal amounts of protein (15-50 μg) were separated by SDS-PAGE and transferred to nitrocellulose membranes (Invitrogen by Thermo Fisher Scientific). The membrane was stained with Ponceau S Stain (Boston BioProducts) to verify uniform protein loading. Membranes were blocked with 10% milk and phosphorylation levels of JNK were assessed by incubating overnight at 4° C. with the antibody Phospho-SAPK/JNK (Thr183/Tyr185), from Cell Signaling Technology. Then the membranes were incubated with HRP-conjugated secondary antibody (Jackson Immunoresearch, West Grove, PA). Bands were incubated in Amersham ECL Prime Western Blotting Detection Reagent (GE Healthcare) and visualized using the ChemiDoc MP imaging system (Bio-Rad).

MAPK p38 phosphorylation = test: MAPK p38 Activation Assay (western blot), Panc-1; format: cell-based, human; settings: at 10 μM, Panc-1 pancreatic cancer cell line; starred symbols = activation
Method in brief: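 Panc-1 cells (KRas G12D) were treated with compound for 6 h at 37 °C, at 10 μM or as serial dilutions for IC50, with 0.3% DMSO. Method 1 used overnight serum-starved cells (0.5% FBS) stimulated with 1.5 ng/ml EGF for 15 min; Method 2 used unstimulated cells in 10% FBS. Phospho-p38 (Thr180/Tyr182) was detected by western blot.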

cdc42 = biological target: T1, cdc42 (Homo sapiens, UniProt P60953); test: Cdc42 GTP Binding Domain Inhibition Assay; settings: read-out: Cdc42: % inh.
T1 construct: made in house
T1 sequence (P60953 whole entry, the tested form may be a part): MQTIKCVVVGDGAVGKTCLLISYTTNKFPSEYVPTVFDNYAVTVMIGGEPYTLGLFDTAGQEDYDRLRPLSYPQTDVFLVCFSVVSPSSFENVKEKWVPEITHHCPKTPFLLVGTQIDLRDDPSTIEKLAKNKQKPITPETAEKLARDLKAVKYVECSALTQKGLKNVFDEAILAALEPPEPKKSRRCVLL
Method: Protocol for Cdc42 and Rheb GTP Binding Domain Inhibition Assay
The following method was developed as specific assay for cdc42 and Rheb proteins.
• 25 mM Tris-HCl, pH 7.4 • 27 mM KCl • 137 mM NaCl • 1 mM MgCl2 • 1 mM DTT Buffer-II: • 50 mM Tris-HCl, pH 7.0 • 1 mM MgCl2 • 1 mM DTT
The small GTPases proteins cdc42 and Rheb were expressed as His-tagged proteins. For the assay, the cdc42 and Rheb purified small GTPases proteins were diluted in Buffer-I or Buffer-II to a final concentration of 10-30 μg/mL. 200 μL of each diluted protein was added to a nickel-coated 96-well plate and incubated overnight at […]. Then the protein solution was discarded and 200 μL of Buffer-I or Buffer-II was added to each well in the presence of 1% DMSO. Compounds to be tested were added to the protein-coated wells at final concentration of 20 μM, and incubated for 3 hours at room temperature with and without 10-30 μg/mL of Sos added to the final hour of the incubation. When performing IC50 measurements a serial dilution of all tested concentrations was added. Then Cy3-GTP or Cy5-GTP was added to each well to a final concentration of 100 nM. The labeled GTP was incubated for 45 minutes at room temperature. Following GTP incubation, wells were washed 3× in Buffer-I or Buffer-II and 200 μL of Buffer-I or Buffer-II was added to each well. Following washes, the amount of bound labeled-GTP was measured using a SpectraMax M3 (Molecular Devices).

| inhibition at 20 µM (cdc42) | Compound | % inh of JNK in Panc-1 (JNK phosphorylation) | % inh of MAPK p38 in Panc-1 (MAPK p38 phosphorylation) |
| --- | --- | --- | --- |
|  | CO[C@H]1CC[C@@H](Nc2nc(-c3ccccn3)nn3cc(-c4ccn(C(C)C)n4)c(-c4ccccc4)c23)C1 (racemic) [Compound 24, rac 6-(1-Isopropyl-1H-pyrazol-3-yl)-N-((1R,3S)-3-methoxycyclopentyl)-5-phenyl-2-(pyridin-2-yl)pyrrolo[2,1-f][1,2,4]triazin-4-amine] | H* (H* ≥ 100% activation) | H* (H* ≥ 100% activation) |
|  | COCC1CCN(c2nc(-c3ccccn3)nn3cc(-c4ccn(C(C)C)n4)c(-c4ccccc4)c23)C1 (racemic) [Compound 25, rac 6-(1-Isopropyl-1H-pyrazol-3-yl)-4-(3-(methoxymethyl)pyrrolidin-1-yl)-5-phenyl-2-(pyridin-2-yl)pyrrolo[2,1-f][1,2,4]triazine] | H* (H* ≥ 100% activation) | H* (H* ≥ 100% activation) |
|  | COC[C@@H]1CC[C@@H]1CNc1nc(-c2ccccn2)nn2cc(-c3ccn(C(C)C)n3)c(-c3ccccc3)c12 (racemic) [Compound 26, rac 6-(1-Isopropyl-1H-pyrazol-3-yl)-N-(((1S,2R)-2-(methoxymethyl)cyclobutyl)methyl)-5-phenyl-2-(pyridin-2-yl)pyrrolo[2,1-f][1,2,4]triazin-4-amine] | H* (H* ≥ 100% activation) | H* (H* ≥ 100% activation) |
|  | COC1CCCN(c2nc(-c3ccccn3)nn3cc(-c4ccn(C(C)C)n4)c(-c4ccccc4)c23)C1 (racemic) [Compound 27, rac 6-(1-Isopropyl-1H-pyrazol-3-yl)-4-(3-methoxypiperidin-1-yl)-5-phenyl-2-(pyridin-2-yl)pyrrolo[2,1-f][1,2,4]triazine] | H* (H* ≥ 100% activation) | H* (H* ≥ 100% activation) |
|  | COc1cccc(-c2cn3nc(-c4nccn4C)nc(N[C@@H]4CC[C@H](OC)C4)c3c2-c2ccccc2)c1Cl (racemic) [Compound 33, rac 6-(2-Chloro-3-methoxyphenyl)-N-((1R,3S)-3-methoxycyclopentyl)-2-(1-methyl-1H-imidazol-2-yl)-5-phenylpyrrolo[2,1-f][1,2,4]triazin-4-amine] | G (G = 75-99% inhibition) | H (H = 100% inhibition) |
|  | CO[C@H]1CC[C@@H](Nc2nc(-c3nccn3C)nn3cc(-c4ccn(C(C)C)n4)c(C(C)C)c23)C1 (racemic) [Compound 36, rac 5-Isopropyl-6-(1-isopropyl-1H-pyrazol-3-yl)-N-((1R,3S)-3-methoxycyclopentyl)-2-(1-methyl-1H-imidazol-2-yl)pyrrolo[2,1-f][1,2,4]triazin-4-amine] | H* (H* ≥ 100% activation) | H* (H* ≥ 100% activation) |
|  | COc1cccc(Nc2nc(-c3nccn3C)nn3cc(-c4ccn(C(C)C)n4)c(-c4ccccc4)c23)n1 [Compound 23, 6-(1-Isopropyl-1H-pyrazol-3-yl)-N-(6-methoxypyridin-2-yl)-2-(1-methyl-1H-imidazol-2-yl)-5-phenylpyrrolo[2,1-f][1,2,4]triazin-4-amine] | H* (H* ≥ 100% activation) | H* (H* ≥ 100% activation) |
|  | COc1cccc(-c2cn3nc(-c4nccn4C)nc(O)c3c2-c2ccccc2)c1Cl [Compound 28, 6-(2-Chloro-3-methoxyphenyl)-2-(1-methyl-1H-imidazol-2-yl)-5-phenylpyrrolo[2,1-f][1,2,4]triazin-4-ol] | H* (H* ≥ 100% activation) | H* (H* ≥ 100% activation) |
|  | COCCNc1nc(-c2nccn2C)nn2cc(-c3cccc(OC)c3Cl)c(-c3ccccc3)c12 [Compound 29, 6-(2-Chloro-3-methoxyphenyl)-N-(2-methoxyethyl)-2-(1-methyl-1H-imidazol-2-yl)-5-phenylpyrrolo[2,1-f][1,2,4]triazin-4-amine] | H (H = 100% inhibition) | H (H = 100% inhibition) |
|  | COCCCNc1nc(-c2nccn2C)nn2cc(-c3cccc(OC)c3Cl)c(-c3ccccc3)c12 [Compound 30, 6-(2-Chloro-3-methoxyphenyl)-N-(3-methoxypropyl)-2-(1-methyl-1H-imidazol-2-yl)-5-phenylpyrrolo[2,1-f][1,2,4]triazin-4-amine] | F (F = 31-74% inhibition) | F (F = 31-74% inhibition) |
|  | COc1cccc(-c2cn3nc(-c4nccn4C)nc(N[C@H]4C[C@@H](OC)C4)c3c2-c2ccccc2)c1Cl [Compound 31, 6-(2-Chloro-3-methoxyphenyl)-N-((1s,3s)-3-methoxycyclobutyl)-2-(1-methyl-1H-imidazol-2-yl)-5-phenylpyrrolo[2,1-f][1,2,4]triazin-4-amine] | H* (H* ≥ 100% activation) | H* (H* ≥ 100% activation) |
|  | COCCNc1nc(-c2nccn2C)nn2cc(-c3ccn(C(C)C)n3)c(C(C)C)c12 [Compound 35, 5-Isopropyl-6-(1-isopropyl-1H-pyrazol-3-yl)-N-(2-methoxyethyl)-2-(1-methyl-1H-imidazol-2-yl)pyrrolo[2,1-f][1,2,4]triazin-4-amine] | H* (H* ≥ 100% activation) | H* (H* ≥ 100% activation) |
| 50 to 75% | COc1cc(Nc2nc(-c3nccn3C)nn3cc(-c4cccnc4)c(C)c23)ncn1 [Compound 48, N-(6-Methoxypyrimidin-4-yl)-5-methyl-2-(1-methyl-1H-imidazol-2-yl)-6-(pyridin-3-yl)pyrrolo[2,1-f][1,2,4]triazin-4-amine] |  |  |
| 1 to 25% | COc1cc(Nc2nc(-c3nccn3C)nn3cc(-c4ccncc4)c(C)c23)ncn1 [Compound 49, N-(6-Methoxypyrimidin-4-yl)-5-methyl-2-(1-methyl-1H-imidazol-2-yl)-6-(pyridin-4-yl)pyrrolo[2,1-f][1,2,4]triazin-4-amine] |  |  |
| 26 to 49% | COc1cc(-c2cn3nc(-c4nccn4C)nc(Nc4cc(OC)ncn4)c3c2C)ccn1 [Compound 50, 6-(2-Methoxypyridin-4-yl)-N-(6-methoxypyrimidin-4-yl)-5-methyl-2-(1-methyl-1H-imidazol-2-yl)pyrrolo[2,1-f][1,2,4]triazin-4-amine] |  |  |
| 76 to 100% | Cc1c(-c2ccn(C(C)C)n2)cn2nc(-c3nccn3C)nc(Nc3cc(C4CC4)n[nH]3)c12 [Compound 68, N-(3-Cyclopropyl-1H-pyrazol-5-yl)-6-(1-isopropyl-1H-pyrazol-3-yl)-5-methyl-2-(1-methyl-1H-imidazol-2-yl)pyrrolo[2,1-f][1,2,4]triazin-4-amine] |  |  |
| 50 to 75% | COc1cncnc1Nc1nc(-c2nccn2C)nn2cc(-c3ccn(C(C)C)n3)c(C)c12 [Compound 73, 6-(1-Isopropyl-1H-pyrazol-3-yl)-N-(5-methoxypyrimidin-4-yl)-5-methyl-2-(1-methyl-1H-imidazol-2-yl)pyrrolo[2,1-f][1,2,4]triazin-4-amine] |  |  |
